Results published in ChEMBL document CHEMBL5108065 (J Med Chem, 2022).
pIC50: −log10 of the molar value. ≈ marks a conversion by molar mass, not a printed value.

How the values were obtained:
[1] = biological target: T1, Renin (Homo sapiens, UniProt P00797); test: Inhibition of human renin
T1 sequence (P00797 whole entry): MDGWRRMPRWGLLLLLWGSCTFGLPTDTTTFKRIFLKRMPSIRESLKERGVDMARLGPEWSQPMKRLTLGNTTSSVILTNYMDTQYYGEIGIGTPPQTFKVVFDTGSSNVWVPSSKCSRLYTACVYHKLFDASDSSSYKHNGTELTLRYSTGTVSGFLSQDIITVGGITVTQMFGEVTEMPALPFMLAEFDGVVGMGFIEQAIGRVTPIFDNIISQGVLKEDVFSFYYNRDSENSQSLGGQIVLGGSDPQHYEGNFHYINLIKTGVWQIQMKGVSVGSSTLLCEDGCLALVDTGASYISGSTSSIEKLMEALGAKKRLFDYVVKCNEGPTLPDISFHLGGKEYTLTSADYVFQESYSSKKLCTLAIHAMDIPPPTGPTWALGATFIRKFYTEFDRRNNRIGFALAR

[2] = Inhibition of BACE (unknown origin); parameters: species or system Homo sapiens
[3] = biological target: Plasmepsin X (Plasmodium falciparum (isolate 3D7), UniProt Q8IAS0); test: biochemical
Sequence of Plasmepsin X (Q8IAS0 whole entry): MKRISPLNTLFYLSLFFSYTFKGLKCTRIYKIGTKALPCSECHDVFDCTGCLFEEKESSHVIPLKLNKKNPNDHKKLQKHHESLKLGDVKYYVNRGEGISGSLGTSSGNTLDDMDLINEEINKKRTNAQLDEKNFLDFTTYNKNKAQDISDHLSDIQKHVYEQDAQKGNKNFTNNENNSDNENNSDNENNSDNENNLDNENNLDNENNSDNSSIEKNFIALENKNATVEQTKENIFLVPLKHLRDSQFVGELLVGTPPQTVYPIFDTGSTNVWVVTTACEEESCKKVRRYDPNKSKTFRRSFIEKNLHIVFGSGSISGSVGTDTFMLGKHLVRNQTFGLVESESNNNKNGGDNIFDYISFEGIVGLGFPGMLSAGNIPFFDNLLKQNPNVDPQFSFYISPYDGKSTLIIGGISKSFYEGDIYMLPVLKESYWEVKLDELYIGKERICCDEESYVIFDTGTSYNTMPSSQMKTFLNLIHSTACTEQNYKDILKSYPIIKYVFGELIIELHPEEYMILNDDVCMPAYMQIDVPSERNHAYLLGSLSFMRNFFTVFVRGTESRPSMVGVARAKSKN
Description: Inhibition of Plasmodium falciparum recombinant C-terminal TEV cleavable 8his-tagged PMX by FRET assay

[4] = Metabolic stability in human hepatocytes assessed as intrinsic clearance measured per 10^6 cells; assay type: functional, Hepatocyte
[5] = Solubility of the compound in FeSSIF at pH 5.8; assay type: physicochemical; conditions: simulated gi fluid
[6] = Lipophilicity, log D of the compound; assay type: physicochemical; conditions: octanol/water
[7] = biological target: Cathepsin D (Homo sapiens, UniProt P07339); test: Inhibition of human cathepsin D
Sequence of Cathepsin D (P07339 65-162 limits assumed): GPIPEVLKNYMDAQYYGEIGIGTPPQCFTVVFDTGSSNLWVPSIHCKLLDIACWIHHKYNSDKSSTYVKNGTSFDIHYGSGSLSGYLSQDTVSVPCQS
Sequence of Cathepsin D (P07339 169-412 limits assumed): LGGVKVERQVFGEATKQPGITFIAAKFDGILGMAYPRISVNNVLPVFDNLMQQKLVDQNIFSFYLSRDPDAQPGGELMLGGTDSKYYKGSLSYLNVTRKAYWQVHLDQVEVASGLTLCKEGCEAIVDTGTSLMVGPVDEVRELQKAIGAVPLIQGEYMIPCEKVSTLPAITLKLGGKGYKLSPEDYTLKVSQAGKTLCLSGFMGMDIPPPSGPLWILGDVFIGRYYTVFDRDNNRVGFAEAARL

[8] = species: Homo sapiens; test: Inhibition of BACE (unknown origin) at 10 uM relative to control
[9] = Inhibition of Plasmodium falciparum PMV by FRET assay
[10] = system: Plasmodium falciparum; test: Antimalarial activity against DDD107498 resistant Plasmodium falciparum Dd2 harbouring pfeef2 mutated loci assessed as inhibition of parasite growth pretreated for 48 hrs followed by [3H]-hypoxanthine addition measured after 24 hrs by scintillation counting method; assay type: functional, organism-based
[11] = system: Plasmodium falciparum; test: Antimalarial activity against DSM265 resistant Plasmodium falciparum Dd2 harbouring pf-dhodh mutated loci assessed as inhibition of parasite growth pretreated for 48 hrs followed by [3H]-hypoxanthine addition measured after 24 hrs by scintillation counting method; assay type: functional, organism-based
[12] = system: Plasmodium falciparum; test: Antiplasmodial activity against sensitive Plasmodium falciparum NF54 infected in human red blood cells assessed as reduction in [3H]-hypoxanthine incorporation pretreated for 48 hrs followed by [3H]-hypoxanthine addition measured after 24 hrs by scintillation counting method; assay type: functional, organism-based
[13] = system: Plasmodium falciparum; test: Antimalarial activity against Plasmodium falciparum TM90C2b harbouring Pf-crt, Pf-mdrl,Pfd-hfr, Pf-cytbQ0 mutated loci assessed as inhibition of parasite growth pretreated for 48 hrs followed by [3H]-hypoxanthine addition measured after 24 hrs by scintillation counting method; assay type: functional, organism-based
[14] = Inhibition of Plasmodium vivax PMX by FRET assay
[15] = system: Plasmodium falciparum; test: Antimalarial activity against KAF156 resistant Plasmodium falciparum Dd2 harbouring pf-carl mutated loci assessed as inhibition of parasite growth pretreated for 48 hrs followed by [3H]-hypoxanthine addition measured after 24 hrs by scintillation counting method; assay type: functional, organism-based
[16] = system: Plasmodium falciparum; test: Antimalarial activity against ELQ300 resistant Plasmodium falciparum Dd2 harbouring pfcytB mutated loci assessed as inhibition of parasite growth pretreated for 48 hrs followed by [3H]-hypoxanthine addition measured after 24 hrs by scintillation counting method; assay type: functional, organism-based
[17] = system: Plasmodium falciparum; test: Antimalarial activity against Plasmodium falciparum K1 harbouring Pf-crt, Pf-mdrl,Pf-dhfr, Pf-dhps mutated loci assessed as inhibition of parasite growth pretreated for 48 hrs followed by [3H]-hypoxanthine addition measured after 24 hrs by scintillation counting method; assay type: functional, organism-based
[18] = system: Plasmodium falciparum; test: Antimalarial activity against Plasmodium falciparum Dd2048 harbouring pfpi4k mutated loci assessed as inhibition of parasite growth pretreated for 48 hrs followed by [3H]-hypoxanthine addition measured after 24 hrs by scintillation counting method; assay type: functional, organism-based

Row | Compound | pIC50 [1] | pIC50 [2] | pIC50 [3] | intrinsic clearance [4] [µL/min] | solubility [5] [µM] | logD [6] | pIC50 [7] | inhibition [8] [%] | pIC50 [9] | pIC50 [10] | pIC50 [11] | pIC50 [12] | pIC50 [13] | pIC50 [14] | pIC50 [15] | pIC50 [16] | pIC50 [17] | pIC50 [18]
1 | [H]/N=C1\N[C@](C)(c2cccc(Nc3cnc(C4CC4)nc3)c2Cl)CC(=O)N1[C@H]1CCO[C@@H](C)C1 | 5.63 | < 5.00 | 8.05 | 4 | 1372 (≈ 643 µg/mL) | 2 | 6.67 |  |  |  |  |  |  |  |  |  |  | 
2 | C[C@@]1(c2cccc(Nc3ccc(C4CC4)nc3)c2Cl)CC(=O)N(C2CCOCC2)C(=N)N1 | 5.97 |  | 7.43 | 3 | 1161 (≈ 527 µg/mL) | 2.1 | 5.92 | 52 |  |  |  |  |  |  |  |  |  | 
3 | C[C@@]1(c2cccc(NC(=O)c3ccccc3)c2Cl)CC(=O)N(C2CCOCC2)C(=N)N1 |  |  | 7.49 | 4 |  | 1.2 | < 5.00 |  | < 5.30 |  |  |  |  |  |  |  |  | 
4 | C[C@@]1(c2cccc(Nc3ccccc3)c2Cl)CC(=O)N(C2CCOCC2)C(=N)N1 |  |  | 7.82 | 28 | 1057 (≈ 436 µg/mL) | 2.2 | 7.24 |  | 5.57 | 7.09 | 7.11 | 6.97 | 7.21 | 7.51 | 7.08 | 7.02 | 6.95 | 7.06
